Experimental data reported in US20250188040A1, “PHARMACEUTICAL COMPOSITIONS COMPRISING WRN HELICASE INHIBITORS” (Vividion Therapeutics, Inc., priority 2022, published 2025).
Read-outs that look alike come from different tables or passages of the source.

Assays:
[1] = biological target: hWRN(519-1227)_C-H3CV-GFP-10His (Homo sapiens, UniProt Q14191); assay: Helicase Assay for WRN Inhibition (ATP-dependent, fluorescence based)
WRN C727 = biological target: T1, WRN C727 (Homo sapiens, UniProt Q14191); assay: Target engagement, in vitro (lysate), OCI-AML2; format: binding; conditions: read-out: OCI-AML2 WRN C727 TE50 in vitro (lysate)
T1 construct: endogenous in cells; host or cells: OCI-AML2
T1 sequence (Q14191 whole entry): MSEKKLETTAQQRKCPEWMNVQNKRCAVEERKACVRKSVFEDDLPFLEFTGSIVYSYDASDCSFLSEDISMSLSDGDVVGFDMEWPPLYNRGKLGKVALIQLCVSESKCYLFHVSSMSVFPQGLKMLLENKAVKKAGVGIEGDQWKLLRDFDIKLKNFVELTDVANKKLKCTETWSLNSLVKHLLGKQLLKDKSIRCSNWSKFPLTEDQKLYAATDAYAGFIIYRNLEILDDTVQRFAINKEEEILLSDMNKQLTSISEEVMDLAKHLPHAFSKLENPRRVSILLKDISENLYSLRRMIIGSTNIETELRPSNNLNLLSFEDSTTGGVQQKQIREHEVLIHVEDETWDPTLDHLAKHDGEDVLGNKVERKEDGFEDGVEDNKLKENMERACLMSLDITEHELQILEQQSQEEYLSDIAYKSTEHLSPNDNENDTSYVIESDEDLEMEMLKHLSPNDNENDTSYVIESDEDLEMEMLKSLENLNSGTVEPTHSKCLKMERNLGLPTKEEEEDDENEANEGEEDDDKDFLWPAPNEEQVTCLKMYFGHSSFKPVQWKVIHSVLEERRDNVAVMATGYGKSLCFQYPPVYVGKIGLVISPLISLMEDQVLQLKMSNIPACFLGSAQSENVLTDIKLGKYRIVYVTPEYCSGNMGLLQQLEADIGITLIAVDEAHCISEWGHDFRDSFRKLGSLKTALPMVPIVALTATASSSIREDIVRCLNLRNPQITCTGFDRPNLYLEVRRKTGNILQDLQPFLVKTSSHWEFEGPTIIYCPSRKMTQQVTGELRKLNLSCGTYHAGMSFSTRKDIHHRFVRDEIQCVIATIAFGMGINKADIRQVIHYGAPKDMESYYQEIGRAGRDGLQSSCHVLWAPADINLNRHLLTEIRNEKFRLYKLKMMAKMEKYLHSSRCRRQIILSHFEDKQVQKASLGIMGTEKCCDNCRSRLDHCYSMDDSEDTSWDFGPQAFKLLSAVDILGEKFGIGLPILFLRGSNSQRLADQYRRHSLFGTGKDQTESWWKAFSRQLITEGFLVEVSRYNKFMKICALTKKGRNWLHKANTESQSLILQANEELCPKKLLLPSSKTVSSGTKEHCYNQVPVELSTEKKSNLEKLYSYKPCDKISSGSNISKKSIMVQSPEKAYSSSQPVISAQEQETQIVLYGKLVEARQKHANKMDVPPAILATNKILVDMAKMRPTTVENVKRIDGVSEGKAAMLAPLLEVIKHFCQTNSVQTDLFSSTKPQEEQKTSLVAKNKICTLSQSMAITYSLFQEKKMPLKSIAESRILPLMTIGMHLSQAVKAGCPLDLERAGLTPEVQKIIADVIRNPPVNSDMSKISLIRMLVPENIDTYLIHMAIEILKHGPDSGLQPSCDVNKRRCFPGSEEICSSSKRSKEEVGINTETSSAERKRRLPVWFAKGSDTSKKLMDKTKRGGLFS
Protocol: Cells or cell lysates were treated with a dose response of compound followed by probe treatment, which labels solvent exposed cysteines. Proteins were enzymatically digested with trypsin and probe-labelled peptides were enriched with streptavidin. Isolated peptides were then separated using reversed-phase liquid chromatography on a C18 column (Dionex Ultimated 3000 nano-LC, Thermo). Peptides were analyzed by parallel reaction monitoring mass spectrometry (Exploris 120, Thermo).
Target engagement (%) is calculated relative to DMSO treated control samples.

[2] = WRN Helicase IC50, 30 min preincubation with ATP, 30 min reaction

Chain of hWRN(519-1227)_C-H3CV-GFP-10His (Q14191 519-1227): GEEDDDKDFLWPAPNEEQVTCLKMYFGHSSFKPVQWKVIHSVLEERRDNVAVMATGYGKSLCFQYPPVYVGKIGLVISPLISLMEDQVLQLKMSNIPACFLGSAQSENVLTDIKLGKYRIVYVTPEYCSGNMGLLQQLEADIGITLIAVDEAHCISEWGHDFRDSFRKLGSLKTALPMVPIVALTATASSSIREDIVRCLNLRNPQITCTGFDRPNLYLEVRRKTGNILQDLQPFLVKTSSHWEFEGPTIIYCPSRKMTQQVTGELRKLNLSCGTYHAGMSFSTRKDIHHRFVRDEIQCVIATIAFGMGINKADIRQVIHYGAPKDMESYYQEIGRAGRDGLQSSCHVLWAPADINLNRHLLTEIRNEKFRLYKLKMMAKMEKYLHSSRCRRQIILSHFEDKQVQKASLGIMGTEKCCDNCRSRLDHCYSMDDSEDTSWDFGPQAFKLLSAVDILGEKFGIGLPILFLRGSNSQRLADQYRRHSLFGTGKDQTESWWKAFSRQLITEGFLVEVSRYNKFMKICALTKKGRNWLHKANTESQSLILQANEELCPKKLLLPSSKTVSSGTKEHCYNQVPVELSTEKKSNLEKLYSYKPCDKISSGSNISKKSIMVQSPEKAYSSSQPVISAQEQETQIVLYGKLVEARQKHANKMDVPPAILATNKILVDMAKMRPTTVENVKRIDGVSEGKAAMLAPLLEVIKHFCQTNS

| Structure (SMILES) | IC50 [1, 2] | IC50 (WRN C727) | IC50 [1] | IC50 ([1]; read-out: WRN Helicase IC50, 30 min preincubation with ATP, 30 min reaction) |
| --- | --- | --- | --- | --- |
| C[C@@H](/C=C/S(C)(=O)=O)NC(=O)c1cnc(C2CCCC2)nc1O[C@H]1CCCOC1 [Example 134, 2-cyclopentyl-N—((S,E)-4-(methylsulfonyl)but-3-en-2-yl)-4-(((S)-tetrahydro-2H-pyran-3-yl)oxy)pyrimidine-5-carboxamide] | 53 µM | > 100 µM | – | – |
| C[C@@H](/C=C/S(C)(=O)=O)NC(=O)c1cnc(C2CCCC2)nc1Oc1ccc(O)cc1 [Example 135, (S,E)-2-cyclopentyl-4-(4-hydroxyphenoxy)-N-(4-(methylsulfonyl)but-3-en-2-yl)pyrimidine-5-carboxamide] | 70 µM | 75 µM | – | – |
| C[C@@H](/C=C/S(C)(=O)=O)NC(=O)c1cnc(C2CCCC2)nc1Oc1cccc(N)c1 [Example 138, (S,E)-4-(3-aminophenoxy)-2-cyclopentyl-N-(4-(methylsulfonyl)but-3-en-2-yl)pyrimidine-5-carboxamide] | 19 µM | > 100 µM | – | – |
| C[C@@H](/C=C/S(C)(=O)=O)NC(=O)c1cnc(C2CC2)nc1OC1CC2(CCC2)C1 [Example 141, (S,E)-2-cyclopropyl-N-(4-(methylsulfonyl)but-3-en-2-yl)-4-(spiro[3.3]heptan-2-yloxy)pyrimidine-5-carboxamide] | 118 µM | > 100 µM | – | – |
| C[C@@H](/C=C/S(C)(=O)=O)NC(=O)c1cnc(C2CC2)nc1OC1CC2(CC2)C1 [Example 142, (S,E)-2-cyclopropyl-N-(4-(methylsulfonyl)but-3-en-2-yl)-4-(spiro[2.3]hexan-5-yloxy)pyrimidine-5-carboxamide] | 20 µM | 50 µM | – | – |
| CC(C)(C)c1ncc(C(=O)NC/C=C/S(C)(=O)=O)c(O[C@H]2C[C@@H]3C[C@@H]3C2)n1 [Example 145, 4-(((1R,3s,5S)-bicyclo[3.1.0]hexan-3-yl)oxy)-2-(tert-butyl)-N—((E)-3-(methylsulfonyl)allyl)pyrimidine-5-carboxamide] | – | >100 µM | – | 59 µM |
| C[C@@H](/C=C/S(C)(=O)=O)NC(=O)c1cnc(C2CC2)nc1OCC1CC1 [Example 150, (S,E)-2-cyclopropyl-4-(cyclopropylmethoxy)-N-(4-(methylsulfonyl)but-3-en-2-yl)pyrimidine-5-carboxamide] | 43 µM | > 100 µM | – | – |
| C[C@@H](/C=C/S(C)(=O)=O)NC(=O)c1cnc(C2CC2)nc1O[C@H]1C[C@H](Cl)C1 [Example 151, 4-((1r,3S)-3-chlorocyclobutoxy)-2-cyclopropyl-N—((S,E)-4-(methylsulfonyl)but-3-en-2-yl)pyrimidine-5-carboxamide] | 59 µM | > 100 µM | – | – |
| C[C@@H](/C=C/S(C)(=O)=O)NC(=O)c1cnc(C(C)(C)C)nc1OC1CCC(F)(F)CC1 [Example 155, (S,E)-2-(tert-butyl)-4-((4,4-difluorocyclohexyl)oxy)-N-(4-(methylsulfonyl)but-3-en-2-yl)pyrimidine-5-carboxamide] | 15 µM | 20 µM | – | – |
| C[C@@H](/C=C/S(C)(=O)=O)NC(=O)c1cnc(C(C)(C)C)nc1OC1CC(F)(F)C1 [Example 156, (S,E)-2-(tert-butyl)-4-(3,3-difluorocyclobutoxy)-N-(4-(methylsulfonyl)but-3-en-2-yl)pyrimidine-5-carboxamide] | 15 µM | 40 µM | – | – |
| C[C@@H](/C=C/S(C)(=O)=O)NC(=O)c1cnc(C(C)(C)C)nc1OC1(C#N)CCCC1 [Example 161, (S,E)-2-(tert-butyl)-4-((1-cyanocyclopentyl)oxy)-N-(4-(methylsulfonyl)but-3-en-2-yl)pyrimidine-5-carboxamide] | 154 µM | > 100 µM | – | – |
| Cc1nc(C2CCCC2)nc(Oc2ccccc2)c1C(=O)N[C@@H](C)/C=C/S(C)(=O)=O [Example 162, (S,E)-2-cyclopentyl-4-methyl-N-(4-(methylsulfonyl)but-3-en-2-yl)-6-phenoxypyrimidine-5-carboxamide] | 128 µM | > 100 µM | – | – |
| C[C@@H](/C=C/S(C)(=O)=O)NC(=O)c1cnc(N2CC3(CCC3)C2)nc1Oc1ccccc1 [Example 170, (S,E)-N-(4-(methylsulfonyl)but-3-en-2-yl)-4-phenoxy-2-(2-azaspiro[3.3]heptan-2-yl)pyrimidine-5-carboxamide] | 137 µM | > 100 µM | – | – |
| C[C@@H](/C=C/S(C)(=O)=O)NC(=O)c1cnc(N2CCC(F)(F)C2)nc1Oc1ccccc1 [Example 173, (S,E)-2-(3,3-difluoropyrrolidin-1-yl)-N-(4-(methylsulfonyl)but-3-en-2-yl)-4-phenoxypyrimidine-5-carboxamide] | 48 µM | > 100 µM | – | – |
| CS(=O)(=O)/C=C/[C@@H](NC(=O)c1cnc(N2CC(F)(F)C2)nc1Oc1ccccc1)C1CC1 [Example 183, (S,E)-N-(1-cyclopropyl-3-(methylsulfonyl)allyl)-2-(3,3-difluoroazetidin-1-yl)-4-phenoxypyrimidine-5-carboxamide] | 2.9 µM | 64.4 µM | – | – |
| CN(C/C=C/S(C)(=O)=O)C(=O)c1cnc(C2CCCC2)nc1Oc1ccccc1 [Example 187, (E)-2-cyclopentyl-N-methyl-N-(3-(methylsulfonyl)allyl)-4-phenoxypyrimidine-5-carboxamide] | 52 µM | > 100 µM | – | – |
| C[C@@H](/C=C/S(C)(=O)=O)NC(=O)c1cnc(C2CC2)c(F)c1Oc1ccccc1 [Example 205, (S,E)-6-cyclopropyl-5-fluoro-N-(4-(methylsulfonyl)but-3-en-2-yl)-4-phenoxynicotinamide] | 20 µM | > 100 µM | – | – |
| C[C@@H](/C=C/S(C)(=O)=O)NC(=O)c1ncc(C2=CCCC2)nc1Oc1ccccc1 [Example 207, (S,E)-5-(cyclopent-1-en-1-yl)-N-(4-(methylsulfonyl)but-3-en-2-yl)-3-phenoxypyrazine-2-carboxamide] | 52 µM | > 100 µM | – | – |
| CS(=O)(=O)/C=C/CNC(=O)c1cnc(-c2ccn[nH]2)nc1Oc1ccccc1 [Example 209, (E)-N-(3-(methylsulfonyl)allyl)-4-phenoxy-2-(1H-pyrazol-5-yl)pyrimidine-5-carboxamide] | 18 µM | > 100 µM | – | – |
| C[C@@H](/C=C/S(C)(=O)=O)NC(=O)c1cnc(C2=CCCOC2)nc1Oc1ccccc1 [Example 211, (S,E)-2-(5,6-dihydro-2H-pyran-3-yl)-N-(4-(methylsulfonyl)but-3-en-2-yl)-4-phenoxypyrimidine-5-carboxamide] | 51 µM | > 100 µM | – | – |

Second part, led by results:

| IC50 [1, 2] | IC50 (WRN C727) | IC50 [1] | Structure (SMILES) | IC50 ([1]; read-out: WRN Helicase IC50, 30 min preincubation with ATP, 30 min reaction) |
| --- | --- | --- | --- | --- |
| 31 µM | > 100 µM | – | C[C@@H](/C=C/S(C)(=O)=O)NC(=O)c1cnc(C2CCCOC2)nc1Oc1ccccc1 (stereo partly drawn) [Example 212, N—((S,E)-4-(methylsulfonyl)but-3-en-2-yl)-4-phenoxy-2-(tetrahydro-2H-pyran-3-yl)pyrimidine-5-carboxamide] | – |
| 17 µM | 0.5 µM | – | CS(=O)(=O)/C=C/[C@@H](NC(=O)c1cc2c(nc1Oc1ccccc1)C(F)(F)CC2)C1CC1 [Example 237, (S,E)-N-(1-cyclopropyl-3-(methylsulfonyl)allyl)-7,7-difluoro-2-phenoxy-6,7-dihydro-5H-cyclopenta[b]pyridine-3-carboxamide] | – |
| 53 µM | > 100 µM | – | C[C@@H](/C=C/S(C)(=O)=O)NC(=O)c1cnc(C2CCOCC2)nc1Oc1ccccc1 [Example 238, (S,E)-N-(4-(methylsulfonyl)but-3-en-2-yl)-4-phenoxy-2-(tetrahydro-2H-pyran-4-yl)pyrimidine-5-carboxamide] | – |
| 148 µM | > 100 µM | – | C[C@@H](/C=C/S(C)(=O)=O)NC(=O)c1cnc(C2CCCC2)nc1C1CCCCC1 [Example 239, (S,E)-4-cyclohexyl-2-cyclopentyl-N-(4-(methylsulfonyl)but-3-en-2-yl)pyrimidine-5-carboxamide] | – |
| 67 µM | > 100 µM | – | C[C@@H](/C=C/S(C)(=O)=O)NC(=O)c1cnc(CC2CCCCC2)nc1Oc1ccccc1 [Example 240, (S,E)-2-(cyclohexylmethyl)-N-(4-(methylsulfonyl)but-3-en-2-yl)-4-phenoxypyrimidine-5-carboxamide] | – |
| 43 µM | > 100 µM | – | C[C@@H](/C=C/S(C)(=O)=O)NC(=O)c1cc2c(nc1Oc1ccccc1)CCC2 [Example 243, (S,E)-N-(4-(methylsulfonyl)but-3-en-2-yl)-2-phenoxy-6,7-dihydro-5H-cyclopenta[b]pyridine-3-carboxamide] | – |
| 20 µM | 0.49 µM | – | COc1ncc(C(=O)N[C@H](/C=C/S(C)(=O)=O)C2CC2)c(Oc2ccccc2)n1 [Example 244, (S,E)-N-(1-cyclopropyl-3-(methylsulfonyl)allyl)-2-methoxy-4-phenoxypyrimidine-5-carboxamide] | – |
| 42 µM | > 100 µM | – | CC(=O)Nc1nc(C2CCCC2)nc(Oc2ccccc2)c1C(=O)N[C@@H](C)/C=C/S(C)(=O)=O [Example 256, (S,E)-4-acetamido-2-cyclopentyl-N-(4-(methylsulfonyl)but-3-en-2-yl)-6-phenoxypyrimidine-5-carboxamide] | – |
| – | 0.12 µM | 7 µM | C[C@@H](/C=C/S(C)(=O)=O)NC(=O)c1cnc(C2CC2)c2c1OC1(CCCC1)C2 [Example 259, (S,E)-4′-cyclopropyl-N-(4-(methylsulfonyl)but-3-en-2-yl)-3′H-spiro[cyclopentane-1,2′-furo[3,2-c]pyridine]-7′-carboxamide] | – |
| 51 µM | 41.8 µM | – | CC(C)Oc1cc(C2CCCC2)ccc1C(=O)NC/C=C/S(C)(=O)=O [Example 281, (E)-4-cyclopentyl-2-isopropoxy-N-(3-(methylsulfonyl)allyl)benzamide] | – |
